This assay has as its system Endothelial cell. Description: Binding affinity to DHEA receptor in bovine aortic endothelial cells exposed to UV for 15 mins at 5 nM after 1 hr by chemiluminescence. The class given is cell-based. As to conditions: Bos taurus.

The source made the active and inactive calls. The calls are words filed in the database; no cut-off is given here.

Consider `C[C@]12CC[C@H](O)CC1=CC[C@@H]1[C@@H]2CC[C@]2(C)/C(=N/OCC(=O)NCCCCCCNC(=O)[C@H](CCCCNC(=O)CCCC[C@@H]3SC[C@@H]4NC(=O)N[C@@H]43)NC(=O)c3ccc(C(=O)c4ccccc4)cc3)CC[C@@H]12`, for which the outcome was Active.

For the molecule `O=C(CCCC[C@@H]1SC[C@@H]2NC(=O)N[C@@H]21)NCCCC[C@H](NC(=O)c1ccc(C(=O)c2ccccc2)cc1)C(=O)O`, the outcome was inactive.

Values taken from ChEMBL document CHEMBL1158516, “Synthesis and application of a photoaffinity analog of dehydroepiandrosterone (DHEA)” (Bioorg Med Chem Lett, 2010).
